Values after ≈ are worked out from the molar mass of the structure shown.

One assay relates to Micrococcus luteus. Kind of assay: Antibacterial activity against Micrococcus luteus assessed as bacterial growth inhibition by CLSI protocol based broth microdilution assay. It counts as functional.
The next assay deals with Clavispora lusitaniae. Kind of assay: Antifungal activity against Candida lusitaniae DSM 70102 assessed as fungal growth inhibition by EUCAST method. Type of assay: functional.
Another assay concerns Escherichia coli. The assay can be described thus: Antibacterial activity against Escherichia coli OP50 assessed as bacterial growth inhibition by CLSI protocol based broth microdilution assay. Type of assay: functional.
Assay [1] has as its system Trypanosoma brucei rhodesiense. The assay can be described thus: Antitrypanosomal activity against Trypanosoma brucei rhodesiense STI B900 measured after 72 hrs by alamar blue dye based fluorimetry analysis. The note with it: STI B900, 72 h. Type of assay: functional, organism-based. (In general: Resazurin is reduced to fluorescent resorufin, in cell work by metabolically active cells.)

In the next assay the test system is Leishmania donovani. Kind of assay: Antileishmanial activity against Leishmania donovani MHOM/ET/67/L82 measured after 72 hrs by alamar blue dye based fluorimetry analysis. Type of assay: functional, organism-based. The note with it: MHOM/ET/67/L82, 72 h.
The next assay has as its system L6. Kind of assay: Cytotoxicity against rat L6 cells measured after 72 hrs by alamar blue dye based fluorimetry analysis. Type of assay: cell-based. The note with it: L6, 72 h.
The subject of another assay is Plasmodium falciparum. The assay can be described thus: Antiplasmodial activity against Plasmodium falciparum NF54 measured after 24 hrs in presence of [3H] hypoxanthine by liquid scintillation counter analysis. Type of assay: functional, organism-based.
A further assay concerns Trypanosoma cruzi. Kind of assay: Antitrypanosomal activity against Trypanosoma cruzi Tulahuen C4 infected in rat L6 cells measured after 96 hrs by inverted microscopy analysis. It counts as functional, organism-based. The note with it: Tulahuen C4, L6, 96 h.

Usually MIC stands for the least concentration at which growth counts as inhibited. Consider `CC1(C)S[C@@H]2[C@H](NC(=O)[C@H](N)c3ccccc3)C(=O)N2[C@H]1C(=O)O` [AMPICILLIN], for which the MIC with Micrococcus luteus was found to be 4.2 µM (≈ 1.47 µg/mL).
`C[C@@H]1[C@H](O)[C@@H](C)/C=C/C=C/C=C/C=C/C=C/C=C/C=C/[C@H](O[C@@H]2O[C@H](C)[C@@H](O)[C@H](N)[C@@H]2O)C[C@@H]2O[C@](O)(C[C@@H](O)C[C@@H](O)[C@H](O)CC[C@@H](O)C[C@@H](O)CC(=O)O[C@H]1C)C[C@H](O)[C@H]2C(=O)O` [AMPHOTERICIN B]: in the assay on Clavispora lusitaniae, the MIC came to 0.42 µM (≈ 0.388 µg/mL).
For the molecule `O=C(N[C@H](CO)[C@H](O)c1ccc([N+](=O)[O-])cc1)C(Cl)Cl` [CHLORAMPHENICOL], in the assay on Escherichia coli, the minimum inhibitory concentration (MIC) stood at 0.6 µM (≈ 0.194 µg/mL).
Broadly, the IC50 is the point on the concentration scale where inhibition reaches its midpoint. In the case of `N=C(N)NCCCC[C@H]1NC(=O)[C@H](Cc2c[nH]c3ccccc23)NC(=O)[C@H](Cc2ccc(O)cc2)NC(=O)[C@@H](Cc2c[nH]c3ccccc23)NC(=O)[C@@H](Cc2ccc(O)cc2)NC(=O)[C@@H](CCCCNC(=N)N)NC1=O`, the IC50 in assay [1] is 13 µM; in the assay with Leishmania donovani it was over 100 µM; in the assay on L6, 83 µM; in the assay with Plasmodium falciparum it was 27 µM; in the assay with Trypanosoma cruzi, 71 µM. Besides, the values for the MIC in the assay with Clavispora lusitaniae, in the assay on Micrococcus luteus and in the assay on Escherichia coli were over 96 µM, 3 µM (≈ 3.12 µg/mL) and 24 µM (≈ 24.9 µg/mL), respectively.
In the assay on L6, `COc1cc([C@@H]2c3cc4c(cc3[C@H](O)[C@H]3COC(=O)[C@H]23)OCO4)cc(OC)c1OC` [PODOFILOX] registered an IC50 of 0.007 µM.

The values above are taken from ChEMBL document CHEMBL4334528, “Structure, Biosynthesis, and Bioactivity of Photoditritide from Photorhabdus temperata Meg1” (J Nat Prod, 2019).
